This note sets out measurements from patent US12264134B2 (Merck Sharp & Dohme LLC, priority 2018, dated 2025).

As a reminder, the IC50 is the concentration needed to halve the response being measured.

The assay deals with IDO1 (Homo sapiens, UniProt P14902). Briefly: IDO1 Cellular Assay in HeLa Cells Stimulated with IFNγ. It is filed as cell-based. To be noted: read-out: HeLa Cell Potency, IC50. How it is done: IDO1 Cellular Assay in HeLa Cells Stimulated with IFNγ
HeLa cells were cultured in complete HeLa culture medium (90% EMEM, 10% heat-inactivated fetal bovine serum) and expanded to about 1×10^9 cells. The cells were then collected and frozen down at 1×10^7 cells/vial in 1 mL frozen medium (90% complete HeLa culture medium, 10% DMSO).
Compounds to be tested were serially diluted in ten 3-fold steps in DMSO starting from 10 mM DMSO stocks in Echo low volume plate(s). Compound dilutions or DMSO alone were then dispensed from the dilution plate(s) into Greiner black 384-well assay plate(s) (catalog #781086, 50 nL/well) using an Echo 550 acoustic liquid handler (Labcyte).
Frozen HeLa cells were thawed and transferred into HeLa assay medium (99% complete HeLa culture medium, 1% Pen/Strep) with 20 mL medium/vial of cells. The cells were spun down at 250 g in a table top centrifuge for 5 min and suspended in same volume of HeLa assay medium. The cells were then counted and adjusted to a density of 2×10^5 cells/mL in HeLa assay medium. Sterile L-tryptophan were added to the cells with final concentration of 300 uM L-tryptophan. A small aliquot (2 mL/plate) of HeLa cells were set aside and were not treated with IFNγ, to serve as the Max-E control.
HeLa cells with and without IFNγ were dispensed to the respective wells of 384-well assay plates containing the compounds. The plates were incubated for about 48 hours at a 37° C., 5% CO2 incubator. Afterwards, 12 μL of 0.5 M methyl isonipecotate in dimethyl sulfoxide were added into each well and the plates were sealed and incubated at 37° C. without CO2 overnight. The plates were centrifuged for 1 min at 200×g. The resulting fluorescence was measured in a Spectramax plate reader (Molecular Devices) with a 400 nm excitation filter and a 510 nm emission filter.
The fluorescence intensity of each well was corrected for the background observed in wells with non-IFNγ-treated cells and was expressed as a fraction of the intensity observed in wells of IFNγ-treated cells and DMSO only. Potencies were calculated by linear least squares fit to the four parameter logistic IC50 equation.

Sequence of IDO1 (P14902 whole entry): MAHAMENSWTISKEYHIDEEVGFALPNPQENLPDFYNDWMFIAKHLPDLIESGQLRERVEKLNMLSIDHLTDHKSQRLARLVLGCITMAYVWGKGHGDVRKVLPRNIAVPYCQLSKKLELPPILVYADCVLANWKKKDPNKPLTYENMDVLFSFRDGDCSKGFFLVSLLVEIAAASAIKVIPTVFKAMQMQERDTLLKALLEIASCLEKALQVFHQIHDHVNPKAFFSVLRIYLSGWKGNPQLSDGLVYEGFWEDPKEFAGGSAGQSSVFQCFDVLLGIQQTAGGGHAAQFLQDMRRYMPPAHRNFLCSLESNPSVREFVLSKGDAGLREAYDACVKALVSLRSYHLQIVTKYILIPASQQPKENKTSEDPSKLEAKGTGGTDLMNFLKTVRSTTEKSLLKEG

With `Cc1cccc(N2CCN(C(=O)Cn3nc(C(=O)N4CCC(OCCO)CC4)c4c3CCC4C(F)F)CC2)c1C` (single isomer, unassigned) [Example 13, 2-[4-(difluoromethyl)-3-[4-(2-hydroxyethoxy)piperidine-1-carbonyl]-5,6-dihydro-4H-cyclopenta[c]pyrazol-1-yl]-1-[4-(2,3-dimethylphenyl)piperazin-1-yl]ethanone], the IC50 was determined as 31 nM.
`Cc1cccc(N2CCN(C(=O)Cn3nc(C(=O)N4CCC(N5CCCC5)CC4)c4c3CCC4)CC2)c1C` [Example 164]: the IC50 worked out at 68.9 nM.
The same measure for `Cc1cccc(N2CCN(C(=O)Cn3nc(C(=O)N4CCC(S(C)(=O)=O)CC4)c4c3CCC4)CC2)c1C` [Example 139, 1-[4-(2,3-dimethylphenyl)piperazin-1-yl]-2-{3-[4-(methylsulfonyl)piperidine-1-carbonyl]-5,6-dihydrocyclopenta[c]pyrazol-1(4H)-yl}ethan-1-one]: 6.98 nM; for `C[C@@H]1CN(C(=O)c2nn(CC(=O)N3CCN(c4ccccc4Cl)CC3)c3c2CCC3)C[C@H](C)O1` [Example 55, 1-[4-(2-chlorophenyl)piperazin-1-yl]-2-{3-[(2R,6S)-2,6-dimethylmorpholine-4-carbonyl]-5,6-dihydrocyclopenta[c]pyrazol-1(4H)-yl}ethan-1-one]: 244 nM.
In the case of `Cc1cccc(N2CCN(C(=O)Cn3nc(C(=O)N4CCN(C(=O)[C@H](C)O)CC4)c4c3CCC4)CC2)c1C` [Example 397, (S)-1-(4-(1-(2-(4-(2,3-dimethylphenyl)piperazin-1-yl)-2-oxoethyl)-1,4,5,6-tetrahydrocyclopenta[c]pyrazole-3-carbonyl)piperazin-1-yl)-2-hydroxypropan-1-one] it was 22.4 nM.
On to `Cc1cccc(N2CCN(C(=O)Cn3nc(C(=O)N4CCC5(CC4)CNC(=O)CO5)c4c3CCC4)CC2)c1C` [Example 190, 9-(1-{2-[4-(2,3-dimethylphenyl)piperazin-1-yl]-2-oxoethyl}-1,4,5,6-tetrahydrocyclopenta[c]pyrazole-3-carbonyll)-1-oxa-4,9-diazaspiro[5.5]undecan-3-one], for which the IC50 came to 1.62 nM.
The same measure for `Cc1cccc(N2CCN(C(=O)Cn3nc(C(=O)N4CC5CCC(F)(F)C5C4)c4c3CCC4)CC2)c1C` (stereo not shown) [Example 153, 2-[3-(4,4-difluorohexahydrocyclopenta[c]pyrrole-2(1H)-carbonyl)-5,6-dihydrocyclopenta[c]pyrazol-1(4H)-yl]-1-[4-(2,3-dimethylphenyl)piperazin-1-yl]ethan-1-one]: 3.19 nM; for `Cc1cccc(N2CCN(C(=O)Cn3nc(C(=O)N4CCN(C5CC5)CC4)c4c3CCC4)CC2)c1C` [Example 123, 2-[3-(4-cyclopropylpiperazine-1-carbonyl)-5,6-dihydrocyclopenta[c]pyrazol-1(4H)-yl]-1-[4-(2,3-dimethylphenyl)piperazin-1-yl]ethan-1-one]: 10.1 nM; for `Cc1cccc(N2CCN(C(=O)Cn3nc(C(=O)N4CCC5(CC4)C[C@H](C)OC5=O)c4c3CCC4)CC2)c1C` [Example 135, (3S)-8-(1-{2-[4-(2,3-dimethylphenyl)piperazin-1-yl]-2-oxoethyl}-1,4,5,6-tetrahydrocyclopenta[c]pyrazole-3-carbonyl)-3-methyl-2-oxa-8-azaspiro[4.5]decan-1-one]: 38.5 nM.
Take `Cc1c(F)cccc1N1CCN(C(=O)Cn2nc(C(=O)N3CC[C@H](O)[C@H](F)C3)c3c2CCC3)CC1` [Example 486, 1-(4-(3-fluoro-2-methylphenyl)piperazin-1-yl)-2-(3-((3R,4S)-3-fluoro-4-hydroxypiperidine-1-carbonyl)-5,6-dihydro-cyclopenta[c]pyrazol-1(4H)-yl)ethanone]: the IC50 worked out at 128 nM.
